Measurements taken from patent US6689806B1, “Indolinone compounds as kinase inhibitors” (Sugen, Inc., priority 1999, dated 2004).

Columns and labels:
A431 = A431 growth; format: cell-based; conditions: Homo sapiens, A-431; Table 7; A431 cells
Her2 [1] = target: T1, Her2 (Homo sapiens, UniProt P04626); test: HER-2 ELISA: EGF receptor-HER2 chimeric receptor assay in whole cells (HER2 kinase); format: cell-based; conditions: Table 7; NIH3T3 cells with EGFR/HER2 chimeric receptor, phosphotyrosine ELISA
T1 construct: fused on or other part: P00533 (Epidermal growth factor receptor)
T1 sequence (P04626 676-1255 limits assumed): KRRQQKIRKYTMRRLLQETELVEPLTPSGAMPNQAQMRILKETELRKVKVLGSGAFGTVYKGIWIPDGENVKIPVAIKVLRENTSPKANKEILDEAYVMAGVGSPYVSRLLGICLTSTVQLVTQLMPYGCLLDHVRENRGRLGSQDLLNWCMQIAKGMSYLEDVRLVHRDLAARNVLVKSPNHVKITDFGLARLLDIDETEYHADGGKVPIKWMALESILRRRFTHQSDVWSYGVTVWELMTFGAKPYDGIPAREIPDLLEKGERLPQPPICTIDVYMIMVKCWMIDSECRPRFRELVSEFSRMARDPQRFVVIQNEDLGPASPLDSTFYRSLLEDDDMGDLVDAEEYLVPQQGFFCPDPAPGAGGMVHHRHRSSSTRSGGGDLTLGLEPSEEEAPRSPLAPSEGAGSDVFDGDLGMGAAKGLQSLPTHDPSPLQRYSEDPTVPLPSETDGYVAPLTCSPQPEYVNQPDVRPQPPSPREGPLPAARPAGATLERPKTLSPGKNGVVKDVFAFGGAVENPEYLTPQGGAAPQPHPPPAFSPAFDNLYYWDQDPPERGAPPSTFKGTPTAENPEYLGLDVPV
Experimental: Assay 1: EGF Receptor-HER2 Chimeric Receptor Assay In Whole Cells.
HER2 kinase activity in whole EGFR-NIH3T3 cells was measured as described below:
1. An NIH3T3 cell line overexpressing a chimeric receptor containing the EGFR extracellular domain and intracellular HER2 kinase domain can be used for this assay.
3. Resuspend cells in seeding medium (DMEM, 0.5% bovine serum), and count the cells using trypan blue. Viability above 90% is acceptable. Seed cells in DMEM medium (0.5% bovine serum) at a density of 10,000 cells per well, 100 μL per well, in a 96 well microtiter plate. Incubate seeded cells in 5% CO2 at 37° C. for about 40 hours.
1. Check seeded cells for contamination using an inverted microscope. Dilute drug stock (10 mg/mL in DMSO) 1:10 in DMEM medium, then transfer 5 μL to a TBST well for a final drug dilution of 1:200 and a final DMSO concentration of 1%. Control wells receive DMSO alone. Incubate in 5% CO2 at 37° C. for two hours.
2. Prepare EGF ligand: dilute stock EGF in DMEM so that upon transfer of 10 μL dilute EGF (1:12 dilution), 100 nM final concentration is attained.
4. After 120 minutes incubation with drug, add prepared […] ligand to cells, 10 μL per well, to a final concentration of 100 nM. Control wells receive DMEM alone. Incubate, shaking, at room temperature, for 5 minutes.
5. Remove drug, EGF, and DMEM. Wash cells twice with PBS. Transfer HNTG* to cells, 100 μL per well. Place on ice for 5 minutes. Meanwhile, remove blocking buffer from other ELISA plate and wash with TBST as described above.
6. With a pipette tip securely fitted to a micropipettor, scrape cells from plate and homogenize cell material by repeatedly aspirating and dispensing the HNTG* lysis buffer. Transfer lysate to a coated, blocked, and washed ELISA plate. Incubate shaking at room temperature for one hour.
7. Remove lysate and wash 4 times with TBST. Transfer freshly diluted anti-Ptyr antibody to ELISA plate at 100 μL per well. Incubate shaking at room temperature for 30 minutes in the presence of the anti-Ptyr antiserum (1:3000 dilution in TBST).
8. Remove the anti-Ptyr antibody and wash 4 times with TBST. Transfer the freshly diluted TAGO anti-rabbit IgG antibody to the ELISA plate at 100 μL per well. Incubate shaking at room temperature for 30 minutes (anti-rabbit IgG antibody: 1:3000 dilution in TBST).
9. Remove TAGO detection antibody and wash 4 times with TBST. Transfer freshly prepared ABTS/H2O2 solution to ELISA plate, 100 μL per well. Incubate shaking at room temperature for 20 minutes. (ABTS/H2O2 solution: 1.0 μL 30% H2O2 in 10 mL ABTS stock).
10. Stop reaction by adding 50 μL 5N H2SO4 (optional), and determine O.D. at 410 nm.
11. The maximal phosphotyrosine signal is determined by subtracting the value of the negative controls from the positive controls. The percent inhibition of phosphotyrosine content for extract-containing wells is then calculated, after subtraction of the negative controls.

EGFR [2] = target: T2, EGFR (Homo sapiens, UniProt P00533); test: Biochemical EGFR assay (ELISA); parameters: A431 cell lysate; endogenous in cells; host or cells: A431; conditions: Table 7, in vitro kinase activity, read-out: EGFr biochem IC50
T2 sequence (P00533 25-1210): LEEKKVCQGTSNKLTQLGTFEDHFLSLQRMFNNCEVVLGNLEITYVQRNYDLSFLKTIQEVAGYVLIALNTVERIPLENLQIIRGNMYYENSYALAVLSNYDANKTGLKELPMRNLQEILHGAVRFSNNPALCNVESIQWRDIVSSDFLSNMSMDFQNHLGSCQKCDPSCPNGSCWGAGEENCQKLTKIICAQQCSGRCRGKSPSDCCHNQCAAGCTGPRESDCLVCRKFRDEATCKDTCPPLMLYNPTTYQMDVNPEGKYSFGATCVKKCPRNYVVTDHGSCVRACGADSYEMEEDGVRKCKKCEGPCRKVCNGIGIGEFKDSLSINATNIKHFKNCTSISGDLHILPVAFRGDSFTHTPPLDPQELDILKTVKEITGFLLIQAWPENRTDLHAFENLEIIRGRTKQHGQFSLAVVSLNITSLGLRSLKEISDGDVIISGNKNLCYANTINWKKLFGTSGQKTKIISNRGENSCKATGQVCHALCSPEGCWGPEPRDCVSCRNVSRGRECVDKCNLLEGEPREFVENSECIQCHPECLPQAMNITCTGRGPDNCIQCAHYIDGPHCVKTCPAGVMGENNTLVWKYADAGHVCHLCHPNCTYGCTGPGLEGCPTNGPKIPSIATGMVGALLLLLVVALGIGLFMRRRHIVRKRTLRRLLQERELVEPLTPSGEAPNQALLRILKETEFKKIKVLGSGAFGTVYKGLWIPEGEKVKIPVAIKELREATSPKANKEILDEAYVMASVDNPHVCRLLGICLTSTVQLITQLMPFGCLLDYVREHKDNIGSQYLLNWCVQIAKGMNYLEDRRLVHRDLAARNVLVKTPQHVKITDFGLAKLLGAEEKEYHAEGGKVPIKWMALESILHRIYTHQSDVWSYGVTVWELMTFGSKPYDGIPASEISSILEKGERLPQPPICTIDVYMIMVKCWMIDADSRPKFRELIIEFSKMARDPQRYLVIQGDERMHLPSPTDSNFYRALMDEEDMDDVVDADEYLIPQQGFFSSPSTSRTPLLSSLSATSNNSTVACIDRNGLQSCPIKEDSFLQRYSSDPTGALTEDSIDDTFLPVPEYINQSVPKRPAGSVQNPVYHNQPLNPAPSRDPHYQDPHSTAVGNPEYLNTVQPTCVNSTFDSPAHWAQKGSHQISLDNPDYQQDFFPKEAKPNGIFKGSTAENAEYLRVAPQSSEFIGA
Experimental: This assay measures the in vitro kinase activity of EGFR using ELISA.
1. Coat Coming 96 well ELISA plates with 0.5 μg SUMOl in 100 μL PBS per well, store overnight at 4° C.
5. Dilute lysate in PBS (7 μg lysate/100 μL PBS).
6. Add 100 μL of diluted lysate to each well. Shake at room temperature for 60 min.
8. Add 120 μL TBS to ELISA plate containing captured EGFR.
9. Dilute test compound 1:10 in TBS in 96-well polypropylene plates (ie. 10 μL compound+90 μL TBS).
10. Add 13.5 μL diluted test compound to ELISA plate.
13. After 5 minutes, stop reaction by adding 16.5 μL of 200 mM EDTA (pH 8.0) to each well, shaking continuously. After the EDTA has been added, shake for 1 mm.
15. Add 100 μL anti-phosphotyrosine (1:3000 dilution in TBST) per well. Incubate 30-45 min. at room temperature, with shaking.
17. Add 100 μL Biosource Goat anti-rabbit IgG peroxidase conjugate (1:2000 dilution in TBST) to each well. Incubate 30 min. at room temperature, with shaking.
19. Add 100 μL of ABTS/H2O2 solution to each well.
22. Read assay on Dynatech MR7000 ELISA reader. Test Filter: 410 nM Reference Filter: 630 Nm.

SKOV3 = SKOV3 growth; format: cell-based; conditions: Homo sapiens, SK-OV-3; Table 7; SKOV3 cells
EGFR [3] = target: T2, EGFR; test: EGF-induced BrdU incorporation assay; format: cell-based; parameters: expressed in transfected cells; host or cells: 3T3; conditions: Table 6; 3T3 cells expressing human EGF-R, EGF 2 nM; read-out: EGF-Driven BrdU Incorp. IC50
Experimental: (§1) The cellular/biologic assays described herein measure the amount of DNA made in response to activation of a test kinase, which is a general measure of a proliferative response. The general procedure for this assay is as follows: a compound is introduced to cells expressing the test kinase, either naturally or recombinantly, for some period of time after which, if the test kinase is a receptor, a ligand known to activate the receptor is added. After incubation at least overnight, a DNA labeling reagent such as Bromodeoxy-uridine (BrdU) or 3H-thymidine is added. The amount of labeled DNA is detected with either an anti-BrdU antibody or by measuring radioactivity and is compared to control cells not contacted with a test compound.
EGF-Induced BrdU Incorporation Assay
(8) 3T3 cell line genetically engineered to express human EGF-R.
(1) Cells are seeded at 8000 cells/well in 10% CS, 2 mM Gin in DMEM, in a 96 well plate. Cells are incubated overnight at 37° C. in 5% CO2.
(§2) (2) After 24 hours, the cells are washed with PBS, and then are serum starved in serum free medium (0% CS DMEM with 0.1% BSA) for 24 hours.
(§3) (3) On day 3, ligand (EGF, 2 nM, prepared in DMEM with 0.1%/BSA) and test compounds are added to the cells simultaneously. The negative control wells receive serum free DMEM with 0.1% BSA only; the positive control cells receive the ligand (EGF) but no test compound. Test compounds are prepared in serum free DMEM with ligand in a 96 well plate, and serially diluted for 7 test concentrations.
(§4) (4) After 20 hours of ligand activation, diluted BrdU labeling reagent (1: 100 in DMEM, 0.1% BSA) is added and the cells are incubated with BrdU (final concentration=10 μM) for 1.5 hours.
(§5) (10) The absorbance of the samples are measured at 410 nm (in “dual wavelength” mode with a filter reading at 490 nm, as a reference wavelength) on a Dynatech ELISA plate reader.

PDGFR = PDGFR (Homo sapiens, UniProt P09619); test: PDGF-induced BrdU incorporation assay; format: cell-based; parameters: expressed in transfected cells; host or cells: 3T3; conditions: Table 6; 3T3 cells expressing human PDGF-R, PDGF 3.8 nM; read-out: PDGF-Driven BrdU Incorp. IC50
Chain of PDGFR (P09619 33-1106): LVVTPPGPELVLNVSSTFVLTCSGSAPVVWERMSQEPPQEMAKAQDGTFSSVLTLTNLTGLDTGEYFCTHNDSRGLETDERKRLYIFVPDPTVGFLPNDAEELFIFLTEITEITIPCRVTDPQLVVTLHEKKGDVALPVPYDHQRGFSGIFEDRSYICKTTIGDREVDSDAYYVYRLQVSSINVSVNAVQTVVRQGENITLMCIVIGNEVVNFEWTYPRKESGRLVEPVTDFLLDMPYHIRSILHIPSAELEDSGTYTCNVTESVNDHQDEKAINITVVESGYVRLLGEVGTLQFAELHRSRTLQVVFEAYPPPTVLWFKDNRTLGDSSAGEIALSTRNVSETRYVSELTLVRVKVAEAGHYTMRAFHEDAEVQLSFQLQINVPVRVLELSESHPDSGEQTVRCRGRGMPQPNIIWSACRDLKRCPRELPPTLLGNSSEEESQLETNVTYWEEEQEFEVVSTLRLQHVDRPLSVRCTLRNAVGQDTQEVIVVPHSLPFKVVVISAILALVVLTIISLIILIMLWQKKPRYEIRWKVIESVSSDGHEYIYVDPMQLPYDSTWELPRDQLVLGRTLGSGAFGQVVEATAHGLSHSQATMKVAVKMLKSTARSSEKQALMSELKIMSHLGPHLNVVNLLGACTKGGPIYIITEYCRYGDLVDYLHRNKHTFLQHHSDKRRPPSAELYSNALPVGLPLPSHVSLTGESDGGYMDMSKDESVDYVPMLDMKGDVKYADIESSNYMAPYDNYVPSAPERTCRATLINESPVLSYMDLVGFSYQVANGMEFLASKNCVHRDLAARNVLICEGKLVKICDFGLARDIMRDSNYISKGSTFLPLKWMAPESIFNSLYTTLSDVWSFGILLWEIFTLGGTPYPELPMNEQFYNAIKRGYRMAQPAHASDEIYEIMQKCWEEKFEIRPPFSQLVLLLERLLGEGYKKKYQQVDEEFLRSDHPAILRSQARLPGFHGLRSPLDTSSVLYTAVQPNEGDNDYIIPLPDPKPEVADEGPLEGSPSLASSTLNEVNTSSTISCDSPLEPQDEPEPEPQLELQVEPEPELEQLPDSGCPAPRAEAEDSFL
Experimental: as §1
PDGF-Induced BrdU Incorporation Assay
(8) 3T3 cell line genetically engineered to express human PDGF-R.
(1) Cells are seeded at 8000 cells/well in DMEM, 10% CS, 2 mM Gln in a 96 well plate. Cells are incubated overnight at 37° C. in 5% CO2.
as §2
as §3, with “(PDGF, 3.8” for “(EGF, 2”, “0.1% BSA)” for “0.1%/BSA)”, “(PDGF)” for “(EGF)”
as §4, §5

Her2 [4] = target: T1, Her2; test: EGF-induced Her2-driven BrdU incorporation; format: cell-based; conditions: Table 6; 3T3 cells with EGF-R/Her2 chimeric receptor, EGF 2 nM; read-out: Her2-Driven BrdU Incorp. IC50
Experimental: as §1
EGF-Induced Her2-Driven BrdU Incorporation
(8) 3T3 cell line engineered to express a chimeric receptor having the extra-cellular domain of EGF-R and the intra-cellular domain of Her2.
(1) Cells are seeded at 8000 cells/well in DMEM, 10% CS, 2 mM Gln in a 96-well plate. Cells are incubated overnight at 37° C. in 5% CO2.
as §2
as §3, with “(EGF=2” for “(EGF, 2”, “0.1% BSA)” for “0.1%/BSA)”
(4) After 20 hours of ligand activation, diluted BrdU labeling reagent (1:100 in DMEM, 0.1% BSA) is added and the cells are incubated with BrdU (final concentration=[…]) for 1.5 hours.
as §5

Row | IC50 (A431) [µM] | IC50 (Her2 [1]) [µM] | IC50 (EGFR [2]) [µM] | IC50 (SKOV3) [µM] | IC50 (EGFR [3]) [µM] | IC50 (PDGFR) [µM] | IC50 (Her2 [4]) [µM] | SMILES
1 | 15.2 | > 100 | > 100 | > 50 | – | – | – | CC(C)c1ccc(OCCc2cccc3c2CC(=O)N3)cc1 [IN-020, 4-[2-(4-Isopropyl-phenoxy)-ethyl]-1,3-dihydro-indol-2-one]
2 | > 50 | > 100 | > 100 | > 50 | – | – | – | O=C1Cc2c(CCOC(=O)NC3CCCCC3)cccc2N1 [IN-013, Cyclohexyl-carbamic acid 2-(2-oxo-2,3-dihydro-1H-indol-4-yl)-ethyl ester]
3 | 21 | > 100 | > 100 | 20.5 | – | – | – | O=C1Cc2c(CCOC(=O)Nc3ccccc3-c3ccccc3)cccc2N1 [IN-015, Biphenyl-2-yl-carbamic acid 2-(2-oxo-2,3-dihydro-1H-indol-4-yl)-ethyl ester]
4 | – | > 100 | > 100 | > 50 | – | – | – | COc1ccc(OCCc2cccc3c2CC(=O)N3)cc1 [IN-017, 4-[2-(4-Methoxy-phenoxy)-ethyl]-1,3-dihydro-indol-2-one]
5 | – | – | – | – | 38.3 | 0.26 | 30.2 | COc1ccc(/C(=C2/C(=O)Nc3ccccc32)c2[nH]c(C)cc2C)cc1OC [DAI-II, 3-[(3,4-dimethoxy-phenyl)-(3,5-dimethyl-1H-pyrrol-2-yl)-methylene]-1,3-dihydro-indol-2-one]
6 | > 25 | > 100 | > 100 | > 25 | – | – | – | O=C1Cc2c(CCOC(=S)Nc3ccccc3)cccc2N1 [IN-010, Phenyl-thiocarbamic acid O-[2-(2-oxo-2,3-dihydro-1H-indol-4-yl)-ethyl]ester]
7 | > 50 | > 100 | > 100 | > 50 | – | – | – | O=C1Cc2c(CCOC(=O)Nc3ccccc3)cccc2N1 [IN-011, Phenyl-carbamic acid 2-(2-oxo-2,3-dihydro-1H-indol-4-yl)-ethyl ester]
8 | – | – | – | – | > 50 | 0.77 | 46.9 | COc1ccc(/C(=C2/C(=O)Nc3ccccc32)c2[nH]c(C)cc2C)cc1 [DAI-I, 3-[(3,5-Dimethyl-1H-pyrrol-2-yl)-(4-methoxy-phenyl)-methylene]-1,3-dihydro-indol-2-one]
9 | > 50 | > 100 | > 100 | > 50 | – | – | – | CCNC(=O)OCCc1cccc2c1CC(=O)N2 [IN-016, Ethyl-carbamic acid 2-(2-oxo-2,3-dihydro-1H-indol-4-yl)-ethyl ester]
10 | > 50 | > 100 | > 100 | > 50 | – | – | – | O=C1Cc2c(CCOC(=O)NS(=O)(=O)c3ccccc3)cccc2N1 [IN-014, Benzene sulfonyl-carbamic acid 2-(2-oxo-2,3-dihydro-1H-indol-4-yl)-ethyl ester]
11 | > 50 | > 100 | > 100 | > 50 | – | – | – | CC(C)(C)NC(=O)OCCc1cccc2c1CC(=O)N2 [IN-012, tert-Butyl-carbamic acid 2-(2-oxo-2,3-dihydro-1H-indol-4-yl)-ethyl ester]
